Species on record: Rattus norvegicus
Assay: Inhibition of ADP-induced activation of rat platelets using aggregometry
Assay type: functional

In order of rising Ki:
1. CNc1nc(Cl)nc2c1ncn2[C@H]1C[C@@H](OP(=O)(O)O)[C@]2(COP(=O)(O)O)C[C@H]12  0.031 µM
2. CNc1nc(Cl)nc2c1ncn2CC(COP(=O)(O)O)COP(=O)(O)O  0.3 µM
3. CNc1nc(Cl)nc2c1ncn2[C@H]1C[C@@H](OP(=O)(O)O)[C@@H](COP(=O)(O)O)O1  0.42 µM
4. CNc1nc(Cl)nc2c1ncn2CCC(COP(=O)(O)O)COP(=O)(O)O  0.46 µM
5. CNc1ncnc2c1ncn2CC(COP(=O)(O)O)COP(=O)(O)O  0.51 µM
6. CNc1ncnc2c1ncn2[C@H]1C[C@H](OP(=O)(O)O)[C@@H](COP(=O)(O)O)O1  0.58 µM
7. CNc1nc(Cl)nc2c1ncn2CC(CP(=O)(O)O)CP(=O)(O)O  0.68 µM
8. CNc1nc(Cl)nc2c1ncn2CC(COP(=O)(O)OP(=O)(O)O)CP(=O)(O)O (stereo not drawn)  1.1 µM
9. CNc1nc(Cl)nc2c1ncn2C[C@@H](COP(=O)(O)O)OP(=O)(O)O  1.4 µM
10. CNc1nc(Cl)nc2c1ncn2CC(COC(=O)Cc1ccccc1)COC(=O)Cc1ccccc1  2 µM
11. CNc1nc(Cl)nc2c1ncn2CC(COC(=O)Nc1ccccc1)COP(=O)(O)O (stereo not drawn)  2.5 µM
12. CNc1nc(Cl)nc2c1ncn2C[C@H](COP(=O)(O)O)OP(=O)(O)O  2.6 µM
13. CNc1nc(Cl)nc2c1ncn2CC(COC(=O)C(C)(C)C)COC(=O)C(C)(C)C  3.6 µM
14. CNc1nc(Cl)nc2c1ncn2CC(COC(=O)c1ccccc1)COC(=O)c1ccccc1  5.1 µM
15. CNc1nc(Cl)nc2c1ncn2C(COP(=O)(O)O)COP(=O)(O)O  5.5 µM
16. CNc1nc(Cl)nc2c1ncn2C1C[C@@H](OC(=O)NC(C)C)[C@@H](COP(=O)(O)O)O1 (stereo partly drawn)  6.4 µM
17. CNc1nc(Cl)nc2c1ncn2CC(COC(C)=O)COC(=O)c1ccccc1 (stereo not drawn)  6.9 µM
18. CNc1nc(Cl)nc2c1ncn2[C@H]1CC(OC(C)=O)[C@]2(COP(=O)(O)O)CC12 (stereo partly drawn)  10 µM
19. C/C=C\C(=O)OCC(COC(=O)/C=C/C)Cn1cnc2c(NC)nc(Cl)nc21 (stereo not drawn)  10 µM
20. CCNC(=O)O[C@@H]1CC(n2cnc3c(NC)nc(Cl)nc32)O[C@@H]1COP(=O)(O)O (stereo partly drawn)  11 µM
21. CNc1nc(Cl)nc2c1ncn2CC(COC(C)=O)COC(=O)Cc1ccccc1 (stereo not drawn)  12.3 µM
22. CNc1nc(Cl)nc2c1ncn2[C@H]1CC(OP(=O)(O)O)[C@]2(COC(C)=O)CC12 (stereo partly drawn)  16 µM
23. CNc1nc(Cl)nc2c1ncn2CC(COC(C)=O)COC(C)=O  18 µM
24. CNc1nc(Cl)nc2c1ncn2CC(COC(=O)c1ccccc1)COP(=O)(O)O (stereo not drawn)  18 µM
25. CNc1nc(Cl)nc2c1ncn2CC(COC(=O)CCC(=O)O)COC(=O)CCC(=O)O  18 µM
26. CCC(=O)OCC(COP(=O)(O)O)Cn1cnc2c(NC)nc(Cl)nc21 (stereo not drawn)  21 µM
27. CCC(=O)OCC(COC(=O)CC)Cn1cnc2c(NC)nc(Cl)nc21  23 µM
28. CNc1nc(Cl)nc2c1ncn2CC(COC(=O)Nc1ccccc1)COC(=O)Nc1ccccc1  24 µM
29. CNc1nc(Cl)nc2c1ncn2CC(COC(=O)c1ccccc1F)COC(=O)c1ccccc1F  24 µM
30. CNc1nc(Cl)nc2c1ncn2CC(CCCP(=O)(O)O)CCCP(=O)(O)O  25 µM
31. CNc1nc(Cl)nc2c1ncn2CC(COC(=O)Oc1ccccc1)COC(=O)Oc1ccccc1  26 µM
32. CNc1nc(Cl)nc2c1ncn2CC(COC(=O)C(C)(C)C)COP(=O)(O)O (stereo not drawn)  29 µM
33. CNc1nc(Cl)nc2c1ncn2[C@H]1CC(OP(=O)(O)O)[C@]2(CO)CC12 (stereo partly drawn)  29 µM
34. CNc1nc(Cl)nc2c1ncn2[C@H]1CC(OC(C)=O)[C@]2(COC(C)=O)CC12 (stereo partly drawn)  29 µM
35. CNc1nc(Cl)nc2c1ncn2[C@H]1CC(O)[C@]2(COP(=O)(O)O)CC12 (stereo partly drawn)  33 µM
36. CNc1nc(Cl)nc2c1ncn2CC(COC(=O)c1c(F)cccc1F)COC(=O)c1c(F)cccc1F  33 µM
37. CNc1nc(Cl)nc2c1ncn2CC(COC(=S)SCc1ccccc1)COC(=S)SCc1ccccc1  87 µM
38. CNc1nc(Cl)nc2c1ncn2CC(COC(C)=O)COP(=O)(O)O (stereo not drawn)  110 µM
